According to ChEMBL document CHEMBL3867433, “Synthesis and antimicrobial activity of styryl/pyrrolyl/pyrazolyl sulfonylmethyl-1,3,4-oxadiazolyl amines and styryl/pyrrolyl/pyrazolyl sulfonylmethyl-1,3,4-thiadiazolyl amines” (2016):
In brackets after ≈: the same amount, converted by molar mass.

Assays:
Type in all cases: functional
Bacillus subtilis [1] = assay: Bactericidal activity against Bacillus subtilis after 24 hrs
Pseudomonas aeruginosa [2] = assay: Antibacterial activity against Pseudomonas aeruginosa at 100 ug/well after 24 hrs by agar well diffusion method; details: read-out: DIZ
Pseudomonas aeruginosa [3] = assay: Antibacterial activity against Pseudomonas aeruginosa at 50 ug/well after 24 hrs by agar well diffusion method; details: read-out: DIZ
Staphylococcus aureus [4] = assay: Antibacterial activity against Staphylococcus aureus at 12.5 ug/well after 24 hrs by agar well diffusion method; details: read-out: DIZ
Aspergillus niger [5] = assay: Antifungal activity against Aspergillus niger assessed as inhibition of spore germination at 50 ug/well after 48 hrs by agar well diffusion method; details: read-out: DIZ
Klebsiella pneumoniae [6] = assay: Antibacterial activity against Klebsiella pneumoniae at 50 ug/well after 24 hrs by agar well diffusion method; details: read-out: DIZ
Pseudomonas aeruginosa [7] = assay: Antibacterial activity against Pseudomonas aeruginosa at 12.5 ug/well after 24 hrs by agar well diffusion method; details: read-out: DIZ
Penicillium chrysogenum [8] = assay: Fungicidal activity against Penicillium chrysogenum assessed as inhibition of spore germination after 48 hrs
Aspergillus niger [9] = assay: Antifungal activity against Aspergillus niger assessed as inhibition of spore germination at 100 ug/well after 48 hrs by agar well diffusion method; details: read-out: DIZ
[10] = Antifungal activity against Penicillium chrysogenum assessed as inhibition of spore germination at 100 ug/well after 48 hrs by agar well diffusion method
Pseudomonas aeruginosa [11] = assay: Bactericidal activity against Pseudomonas aeruginosa after 24 hrs
Staphylococcus aureus [12] = assay: Antibacterial activity against Staphylococcus aureus at 100 ug/well after 24 hrs by agar well diffusion method; details: read-out: DIZ
Klebsiella pneumoniae [13] = assay: Bactericidal activity against Klebsiella pneumoniae after 24 hrs
[14] = Antifungal activity against Penicillium chrysogenum assessed as inhibition of spore germination at 12.5 ug/well after 48 hrs by agar well diffusion method
Aspergillus niger [15] = assay: Antifungal activity against Aspergillus niger assessed as inhibition of spore germination at 25 ug/well after 48 hrs by agar well diffusion method; details: read-out: DIZ
Pseudomonas aeruginosa [16] = assay: Antibacterial activity against Pseudomonas aeruginosa at 25 ug/well after 24 hrs by agar well diffusion method; details: read-out: DIZ
Pseudomonas aeruginosa [17] = assay: Antibacterial activity against Pseudomonas aeruginosa after 24 hrs by broth dilution method
Staphylococcus aureus [18] = assay: Bactericidal activity against Staphylococcus aureus after 24 hrs
Pseudomonas aeruginosa [19] = assay: Ratio of MBC to MIC for Pseudomonas aeruginosa
Staphylococcus aureus [20] = assay: Antibacterial activity against Staphylococcus aureus after 24 hrs by broth dilution method
Klebsiella pneumoniae [21] = assay: Antibacterial activity against Klebsiella pneumoniae after 24 hrs by broth dilution method
Bacillus subtilis [22] = assay: Antibacterial activity against Bacillus subtilis at 50 ug/well after 24 hrs by agar well diffusion method; details: read-out: DIZ
Bacillus subtilis [23] = assay: Antibacterial activity against Bacillus subtilis after 24 hrs by broth dilution method
Bacillus subtilis [24] = assay: Antibacterial activity against Bacillus subtilis at 12.5 ug/well after 24 hrs by agar well diffusion method; details: read-out: DIZ
[25] = Antifungal activity against Penicillium chrysogenum assessed as inhibition of spore germination at 25 ug/well after 48 hrs by agar well diffusion method
Bacillus subtilis [26] = assay: Antibacterial activity against Bacillus subtilis at 100 ug/well after 24 hrs by agar well diffusion method; details: read-out: DIZ
[27] = Antifungal activity against Penicillium chrysogenum assessed as inhibition of spore germination after 48 hrs by broth dilution method
Penicillium chrysogenum [28] = assay: Ratio of MFC to MIC for Penicillium chrysogenum
Klebsiella pneumoniae [29] = assay: Antibacterial activity against Klebsiella pneumoniae at 12.5 ug/well after 24 hrs by agar well diffusion method; details: read-out: DIZ
Bacillus subtilis [30] = assay: Antibacterial activity against Bacillus subtilis at 25 ug/well after 24 hrs by agar well diffusion method; details: read-out: DIZ
Klebsiella pneumoniae [31] = assay: Antibacterial activity against Klebsiella pneumoniae at 25 ug/well after 24 hrs by agar well diffusion method; details: read-out: DIZ
[32] = Antifungal activity against Penicillium chrysogenum assessed as inhibition of spore germination at 50 ug/well after 48 hrs by agar well diffusion method
Aspergillus niger [33] = assay: Antifungal activity against Aspergillus niger assessed as inhibition of spore germination after 48 hrs by broth dilution method
Klebsiella pneumoniae [34] = assay: Antibacterial activity against Klebsiella pneumoniae at 100 ug/well after 24 hrs by agar well diffusion method; details: read-out: DIZ
Staphylococcus aureus [35] = assay: Antibacterial activity against Staphylococcus aureus at 25 ug/well after 24 hrs by agar well diffusion method; details: read-out: DIZ
Aspergillus niger [36] = assay: Antifungal activity against Aspergillus niger assessed as inhibition of spore germination at 12.5 ug/well after 48 hrs by agar well diffusion method; details: read-out: DIZ
Staphylococcus aureus [37] = assay: Antibacterial activity against Staphylococcus aureus at 50 ug/well after 24 hrs by agar well diffusion method; details: read-out: DIZ
Aspergillus niger [38] = assay: Fungicidal activity against Aspergillus niger assessed as inhibition of spore germination after 48 hrs

| Compound | MBC (Bacillus subtilis [1]) [µg/mL] | zone of inhibition at 100 µg/disc (Pseudomonas aeruginosa [2]) [mm] | zone of inhibition at 50 µg/disc (Pseudomonas aeruginosa [3]) [mm] | zone of inhibition at 12.5 µg/disc (Staphylococcus aureus [4]) [mm] | zone of inhibition at 50 µg/disc (Aspergillus niger [5]) [mm] | zone of inhibition at 50 µg/disc (Klebsiella pneumoniae [6]) [mm] | zone of inhibition at 12.5 µg/disc (Pseudomonas aeruginosa [7]) [mm] | MFC (Penicillium chrysogenum [8]) [µg/mL] | zone of inhibition at 100 µg/disc (Aspergillus niger [9]) [mm] | inhibition zone (IZ) [10] [mm] | MBC (Pseudomonas aeruginosa [11]) [µg/mL] | zone of inhibition at 100 µg/disc (Staphylococcus aureus [12]) [mm] | MBC (Klebsiella pneumoniae [13]) [µg/mL] | inhibition zone (IZ) [14] [mm] | zone of inhibition at 25 µg/disc (Aspergillus niger [15]) [mm] | zone of inhibition at 25 µg/disc (Pseudomonas aeruginosa [16]) [mm] | MIC (Pseudomonas aeruginosa [17]) [µg/mL] | MBC (Staphylococcus aureus [18]) [µg/mL] | Ratio (Pseudomonas aeruginosa [19]) | MIC (Staphylococcus aureus [20]) [µg/mL] | further results |
| --- | --- | --- | --- | --- | --- | --- | --- | --- | --- | --- | --- | --- | --- | --- | --- | --- | --- | --- | --- | --- | --- |
| Nc1nnc(CS(=O)(=O)c2c[nH]cc2-c2ccc(Cl)cc2)s1 | > 200 | 26 | 24 | 17 | 19 | 32 | 20 | > 200 | 21 | 37 | 100 (≈ 282 µM) | 23 | > 100 | 29 | 17 | 22 | 25 (≈ 70.5 µM) | > 200 | >2 | 50 (≈ 141 µM) | MIC (Klebsiella pneumoniae [21]): 25 µg/mL (≈ 70.5 µM); zone of inhibition at 50 µg/disc (Bacillus subtilis [22]): 23 mm; MIC (Bacillus subtilis [23]): 50 µg/mL (≈ 141 µM); zone of inhibition at 12.5 µg/disc (Bacillus subtilis [24]): 21 mm; inhibition zone (IZ) [25]: 32 mm; zone of inhibition at 100 µg/disc (Bacillus subtilis [26]): 25 mm; MIC [27]: 50 µg/mL (≈ 141 µM); Ratio (Penicillium chrysogenum [28]): >2; zone of inhibition at 12.5 µg/disc (Klebsiella pneumoniae [29]): 28 mm; zone of inhibition at 25 µg/disc (Bacillus subtilis [30]): 22 mm; zone of inhibition at 25 µg/disc (Klebsiella pneumoniae [31]): 30 mm; inhibition zone (IZ) [32]: 34 mm; MIC (Aspergillus niger [33]): 25 µg/mL (≈ 70.5 µM); zone of inhibition at 100 µg/disc (Klebsiella pneumoniae [34]): 34 mm; zone of inhibition at 25 µg/disc (Staphylococcus aureus [35]): 19 mm; zone of inhibition at 12.5 µg/disc (Aspergillus niger [36]): 15 mm; zone of inhibition at 50 µg/disc (Staphylococcus aureus [37]): 21 mm; MFC (Aspergillus niger [38]): 100 µg/mL (≈ 282 µM) |
| Nc1nnc(CS(=O)(=O)c2n[nH]cc2-c2ccc(Cl)cc2)s1 | 100 (≈ 281 µM) | 31 | 28 | 21 | 28 | 34 | 24 | 50 (≈ 141 µM) | 30 | 38 | 50 (≈ 141 µM) | 25 | > 100 | 31 | 26 | 26 | 12.5 (≈ 35.1 µM) | 200 (≈ 562 µM) | >2 | 50 (≈ 141 µM) | MIC (Klebsiella pneumoniae [21]): 25 µg/mL (≈ 70.3 µM); zone of inhibition at 50 µg/disc (Bacillus subtilis [22]): 28 mm; MIC (Bacillus subtilis [23]): 25 µg/mL (≈ 70.3 µM); zone of inhibition at 12.5 µg/disc (Bacillus subtilis [24]): 26 mm; inhibition zone (IZ) [25]: 33 mm; zone of inhibition at 100 µg/disc (Bacillus subtilis [26]): 30 mm; MIC [27]: 12.5 µg/mL (≈ 35.1 µM); Ratio (Penicillium chrysogenum [28]): >2; zone of inhibition at 12.5 µg/disc (Klebsiella pneumoniae [29]): 30 mm; zone of inhibition at 25 µg/disc (Bacillus subtilis [30]): 27 mm; zone of inhibition at 25 µg/disc (Klebsiella pneumoniae [31]): 32 mm; inhibition zone (IZ) [32]: 35 mm; MIC (Aspergillus niger [33]): 25 µg/mL (≈ 70.3 µM); zone of inhibition at 100 µg/disc (Klebsiella pneumoniae [34]): 36 mm; zone of inhibition at 25 µg/disc (Staphylococcus aureus [35]): 22 mm; zone of inhibition at 12.5 µg/disc (Aspergillus niger [36]): 24 mm; zone of inhibition at 50 µg/disc (Staphylococcus aureus [37]): 23 mm; MFC (Aspergillus niger [38]): 100 µg/mL (≈ 281 µM) |
| Nc1nnc(CS(=O)(=O)/C=C\c2ccc(Cl)cc2)s1 | 100 (≈ 317 µM) | 34 | 28 | 22 | 31 | 36 | 24 | 25 (≈ 79.2 µM) | 32 | 41 | 12.5 (≈ 39.6 µM) | 26 | 50 (≈ 158 µM) | 34 | 29 | 26 | 6.25 (≈ 19.8 µM) | > 100 | 2 | 25 (≈ 79.2 µM) | MIC (Klebsiella pneumoniae [21]): 12.5 µg/mL (≈ 39.6 µM); zone of inhibition at 50 µg/disc (Bacillus subtilis [22]): 30 mm; MIC (Bacillus subtilis [23]): 25 µg/mL (≈ 79.2 µM); zone of inhibition at 12.5 µg/disc (Bacillus subtilis [24]): 28 mm; inhibition zone (IZ) [25]: 35 mm; zone of inhibition at 100 µg/disc (Bacillus subtilis [26]): 32 mm; MIC [27]: 12.5 µg/mL (≈ 39.6 µM); Ratio (Penicillium chrysogenum [28]): 2; zone of inhibition at 12.5 µg/disc (Klebsiella pneumoniae [29]): 32 mm; zone of inhibition at 25 µg/disc (Bacillus subtilis [30]): 29 mm; zone of inhibition at 25 µg/disc (Klebsiella pneumoniae [31]): 34 mm; inhibition zone (IZ) [32]: 37 mm; MIC (Aspergillus niger [33]): 12.5 µg/mL (≈ 39.6 µM); zone of inhibition at 100 µg/disc (Klebsiella pneumoniae [34]): 38 mm; zone of inhibition at 25 µg/disc (Staphylococcus aureus [35]): 23 mm; zone of inhibition at 12.5 µg/disc (Aspergillus niger [36]): 27 mm; zone of inhibition at 50 µg/disc (Staphylococcus aureus [37]): 24 mm; MFC (Aspergillus niger [38]): 50 µg/mL (≈ 158 µM) |
